Experimental data reported in US9505762B2, “Purine derivatives as CB2 receptor agonists” (Hoffmann-La Roche Inc., priority 2013, dated 2016).

Assays:
human CB2 receptors = human CB2 receptors (Homo sapiens (Human), UniProt P34972); assay: functional cAMP assay, CB2; type: cell-based; conditions: CHO cells expressing human CB2
Description: (§1) The growth medium was exchanged with Krebs Ringer Bicarbonate buffer with 1 mM IBMX and incubated at 30° C. for 30 min. Compounds were added to a final assay volume of 100 μl and incubated for 30 min at 30° C. Using the cAMP-Nano-TRF detection kit the assay (Roche Diagnostics) was stopped by the addition of 50 μl lysis reagent (Tris, NaCl, 1.5% Triton X100, 2.5% NP40, 10% NaN3) and 50 μl detection solutions (20 μM mAb Alexa700-cAMP 1:1, and 48 μM Ruthenium-2-AHA-cAMP) and shaken for 2 h at room temperature. The time-resolved energy transfer is measured by a TRF reader (Evotec Technologies GmbH), equipped with a ND:YAG laser as excitation source. The plate is measured twice with the excitation at 355 nm and at the emission with a delay of 100 ns and a gate of 100 ns, total exposure time 10 s at 730 (bandwidth 30 nm) or 645 nm (bandwidth 75 nm), respectively.
(§2) EC50 values were determined using Activity Base analysis (ID Business Solution, Limited).

human CB1 receptors = human CB1 receptors (Homo sapiens (Human), UniProt P21554); assay: functional cAMP assay, CB1; type: cell-based; conditions: CHO cells expressing human CB1
Description: as §1, §2

Sequence of human CB1 receptors (P21554 whole entry): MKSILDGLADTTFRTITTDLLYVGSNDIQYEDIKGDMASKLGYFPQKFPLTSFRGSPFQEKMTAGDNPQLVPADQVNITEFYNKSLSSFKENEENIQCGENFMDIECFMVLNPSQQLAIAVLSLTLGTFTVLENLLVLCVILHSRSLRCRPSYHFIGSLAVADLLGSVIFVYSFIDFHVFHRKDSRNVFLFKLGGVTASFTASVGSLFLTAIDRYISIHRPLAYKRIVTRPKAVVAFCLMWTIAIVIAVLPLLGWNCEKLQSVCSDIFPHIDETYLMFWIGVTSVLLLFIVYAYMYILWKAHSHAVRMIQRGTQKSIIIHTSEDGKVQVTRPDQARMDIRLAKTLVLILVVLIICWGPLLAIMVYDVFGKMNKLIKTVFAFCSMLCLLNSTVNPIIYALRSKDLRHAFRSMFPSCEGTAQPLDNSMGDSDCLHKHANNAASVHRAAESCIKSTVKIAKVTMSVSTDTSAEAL
Sequence of human CB2 receptors (P34972 whole entry): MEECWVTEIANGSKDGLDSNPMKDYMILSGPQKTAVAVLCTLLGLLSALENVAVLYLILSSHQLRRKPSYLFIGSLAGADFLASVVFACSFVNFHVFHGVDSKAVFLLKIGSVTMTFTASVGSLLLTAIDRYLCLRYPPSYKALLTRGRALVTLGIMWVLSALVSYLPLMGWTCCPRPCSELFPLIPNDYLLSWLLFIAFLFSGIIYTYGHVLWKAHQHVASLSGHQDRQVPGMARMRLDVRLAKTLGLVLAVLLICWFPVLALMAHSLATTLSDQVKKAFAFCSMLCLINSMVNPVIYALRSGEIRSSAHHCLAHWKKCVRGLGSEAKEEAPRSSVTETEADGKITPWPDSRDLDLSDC

Cc1nnc(Cn2cnc3c(N4CCC(F)(F)C4)nc(C(C)(C)C)nc32)o1 [Example 11, 2-[[2-tert-butyl-6-(3,3-difluoropyrrolidin-1-yl)purin-9-yl]methyl]-5-methyl-1,3,4-oxadiazole] was tested, and the EC50 (human CB2 receptors) was 0.0617 µM and the EC50 (human CB1 receptors) was > 10 µM.

COCCn1cnc2c(N3CCC(O)C3)nc(C(C)(C)C)nc21 (stereo not drawn) [Example 37, 1-[2-tert-butyl-9-(2-methoxyethyl)purin-6-yl]pyrrolidin-3-ol] was tested, and the EC50 (human CB2 receptors) was 0.274 µM and the EC50 (human CB1 receptors) was > 10 µM.

With COCCn1cnc2c(N3CC(F)(F)C(F)(F)C3)nc(C(C)(C)C)nc21 [Example 83, 2-tert-butyl-9-(2-methoxyethyl)-6-(3,3,4,4-tetrafluoropyrrolidin-1-yl)purine] the EC50 (human CB2 receptors) was 0.0646 µM and the EC50 (human CB1 receptors) was > 10 µM.

For CC(C)(C)c1nc(N2CCC[C@@H]2CO)c2ncn(Cc3nnnn3C3CC3)c2n1 [Example 146, [(2R)-1-[2-tert-butyl-9-[(1-cyclopropyltetrazol-5-yl)methyl]purin-6-yl]pyrrolidin-2-yl]methanol], the EC50 (human CB1 receptors) was > 10 µM.

In the case of Cc1nnc(Cn2cnc3c(N4CCC(F)(F)C4)nc(OCC(C)(C)C)nc32)o1 [Example 127, 2-[[6-(3,3-difluoropyrrolidin-1-yl)-2-(2,2-dimethylpropoxy)purin-9-yl]methyl]-5-methyl-1,3,4-oxadiazole], the EC50 (human CB2 receptors) is reported as 0.332 µM and the EC50 (human CB1 receptors) is reported as > 10 µM.

COc1ccc(Cn2cnc3c(N4CCC(F)(F)C4)nc(C(C)(C)C)nc32)cc1 [Example 20, 2-tert-butyl-6-(3,3-difluoropyrrolidin-1-yl)-9-[(4-methoxyphenyl)methyl]purine] was tested, and the EC50 (human CB2 receptors) was 0.0125 µM and the EC50 (human CB1 receptors) was > 10 µM.

In the case of Cc1noc(Cn2cnc3c(N4CC(F)(F)C(F)(F)C4)nc(C(C)(C)C)nc32)n1 [Example 80, 5-[[2-tert-butyl-6-(3,3,4,4-tetrafluoropyrrolidin-1-yl)purin-9-yl]methyl]-3-methyl-1,2,4-oxadiazole], the EC50 (human CB2 receptors) is reported as 0.179 µM and the EC50 (human CB1 receptors) is reported as > 10 µM.

With CC(=O)N[C@H]1CCN(c2nc(C(C)(C)C)nc3c2ncn3Cc2cccc(Cl)c2)C1 [Example 49, N—[(S)-1-[2-tert-butyl-9-[(3-chlorophenyl)methyl]purin-6-yl]pyrrolidin-3-yl]acetamide] the EC50 (human CB2 receptors) was 0.311 µM and the EC50 (human CB1 receptors) was > 10 µM.

In the case of Cc1nonc1Cn1cnc2c(N3CCC4(COC4)C3)nc(C(C)(C)C)nc21 [Example 62, 7-[2-tert-butyl-9-[(4-methyl-1,2,5-oxadiazol-3-yl)methyl]purin-6-yl]-2-oxa-7-azaspiro[3.4]octane], the EC50 (human CB2 receptors) is reported as 0.146 µM and the EC50 (human CB1 receptors) is reported as > 10 µM.

For CC(C)(C)c1nc(N2CCC(F)(F)C2)c2ncn(Cc3ccc(F)cc3Cl)c2n1 [Example 4, 2-tert-butyl-9-[(2-chloro-4-fluorophenyl)methyl]-6-(3,3-difluoropyrrolidin-1-yl)purine], the EC50 (human CB2 receptors) was 0.0031 µM and the EC50 (human CB1 receptors) was > 10 µM.

With CC(C)(C)c1nc(N2CC(F)(F)C2)c2ncn(Cc3ncccc3Cl)c2n1 [Example 160, 2-tert-butyl-9-[(3-chloropyridin-2-yl)methyl]-6-(3,3-difluoroazetidin-1-yl)purine] the EC50 (human CB1 receptors) was > 10 µM.

For CC(C)(C)c1nc(N2CC(O)(C(F)(F)F)C2)c2ncn(Cc3ncccc3Cl)c2n1 [Example 167, 1-[2-tert-butyl-9-[(3-chloropyridin-2-yl)methyl]purin-6-yl]-3-(trifluoromethyl)azetidin-3-ol], the EC50 (human CB2 receptors) was 0.035 µM and the EC50 (human CB1 receptors) was > 10 µM.

With CC(C)(C)c1nc(N2CCC3(COC3)C2)c2ncn(Cc3ccc(Cl)cc3)c2n1 [Example 58, 7-[2-tert-butyl-9-[(4-chlorophenyl)methyl]purin-6-yl]-2-oxa-7-azaspiro[3.4]octane] the EC50 (human CB2 receptors) was 0.506 µM and the EC50 (human CB1 receptors) was > 10 µM.

CC1(O)CCN(c2nc(C(C)(C)C)nc3c2ncn3Cc2ccc(Cl)cc2)C1 (stereo not drawn) [Example 66, 1-[2-tert-butyl-9-[(4-chlorophenyl)methyl]purin-6-yl]-3-methylpyrrolidin-3-ol] was tested, and the EC50 (human CB1 receptors) was > 10 µM.

With CC(C)(C)c1nc(N2CCC(F)(F)C2)c2ncn(CCc3ccccc3)c2n1 [Example 13, 2-tert-butyl-6-(3,3-difluoropyrrolidin-1-yl)-9-(2-phenylethyl)purine] the EC50 (human CB2 receptors) was 0.0054 µM.

In the case of CC(C)(C)c1nc(N2CCC(F)(F)C2)c2ncn(Cc3c[nH]nc3C(F)(F)F)c2n1 [Example 41, 2-tert-butyl-6-(3,3-difluoropyrrolidin-1-yl)-9-[[3-(trifluoromethyl)-1H-pyrazol-4-yl]methyl]purine], the EC50 (human CB2 receptors) is reported as 0.0092 µM.

Cc1nnc(Cn2cnc3c(N4CCC(F)(F)C4)nc(NC(C)(C)C)nc32)o1 [Example 109, N-tert-butyl-6-(3,3-difluoropyrrolidin-1-yl)-9-[(5-methyl-1,3,4-oxadiazol-2-yl)methyl]purin-2-amine] was tested, and the EC50 (human CB1 receptors) was > 10 µM.

CC(C)(C)c1nc(N2CC[C@H](O)C2)c2ncn(Cc3nnnn3C(C)(C)C)c2n1 [Example 166, (3S)-1-[2-tert-butyl-9-[(1-tert-butyltetrazol-5-yl)methyl]purin-6-yl]pyrrolidin-3-ol] was tested, and the EC50 (human CB1 receptors) was > 10 µM.

For CC(C)(C)Nc1nc(N2CC3(COC3)C2)c2ncn(Cc3ccccc3C(F)(F)F)c2n1 [Example 137, N-tert-butyl-6-(2-oxa-6-azaspiro[3.3]heptan-6-yl)-9-[[2-(trifluoromethyl)phenyl]methyl]purin-2-amine], the EC50 (human CB1 receptors) was > 10 µM.

With COCCn1cnc2c(N3CCC(C)(O)C3)nc(C(C)(C)C)nc21 (stereo not drawn) [Example 71, 1-[2-tert-butyl-9-(2-methoxyethyl)purin-6-yl]-3-methylpyrrolidin-3-ol] the EC50 (human CB1 receptors) was > 10 µM.

For CC(C)(C)c1nc(N2CC(F)(F)C(F)(F)C2)c2ncn(Cc3ccccc3Cl)c2n1 [Example 72, 2-tert-butyl-9-[(2-chlorophenyl)methyl]-6-(3,3,4,4-tetrafluoropyrrolidin-1-yl)purine], the EC50 (human CB1 receptors) was > 10 µM.

In the case of CC(=O)N[C@H]1CCN(c2nc(C(C)(C)C)nc3c2ncn3Cc2ccccc2Cl)C1 [Example 48, N—{(S)-1-[2-tert-Butyl-9-(2-chloro-benzyl)-9H-purin-6-yl]-pyrrolidin-3-yl}-acetamide], the EC50 (human CB1 receptors) is reported as > 10 µM.

With Cc1nonc1Cn1cnc2c(N3CC(F)(F)C(F)(F)C3)nc(C(C)(C)C)nc21 [Example 82, 3-[[2-tert-butyl-6-(3,3,4,4-tetrafluoropyrrolidin-1-yl)purin-9-yl]methyl]-4-methyl-1,2,5-oxadiazole] the EC50 (human CB1 receptors) was > 10 µM.

With Cc1ccc(Cn2cnc3c(N4CCC(F)(F)C4)nc(C(C)(C)C)nc32)cc1 [Example 3, 2-tert-butyl-6-(3,3-difluoropyrrolidin-1-yl)-9-[(4-methylphenyl)methyl]purine] the EC50 (human CB1 receptors) was > 10 µM.

CC(C)(C)c1nc(N2CC[C@H](O)C2)c2ncn(Cc3ccc(Cl)cc3)c2n1 [Example 88, (3S)-1-[2-tert-butyl-9-[(4-chlorophenyl)methyl]purin-6-yl]pyrrolidin-3-ol] was tested, and the EC50 (human CB1 receptors) was > 10 µM.

COCCn1cnc2c(N3CCC(F)(F)C3)nc(C(C)(C)C)nc21 [Example 15, 2-tert-butyl-6-(3,3-difluoropyrrolidin-1-yl)-9-(2-methoxyethyl)purine] was tested, and the EC50 (human CB1 receptors) was > 10 µM.

With CC(C)(C)c1nc(N2CCC(F)(F)C2)c2ncn(CCC(F)(F)F)c2n1 [Example 19, 2-tert-butyl-6-(3,3-difluoropyrrolidin-1-yl)-9-(3,3,3-trifluoropropyl)purine] the EC50 (human CB1 receptors) was > 10 µM.

In the case of CC(C)(C)c1nc(N2CCC(F)(F)C2)c2ncn(Cc3ccccc3Cl)c2n1 [Example 2, 2-tert-butyl-9-[(2-chlorophenyl)methyl]-6-(3,3-difluoropyrrolidin-1-yl)purine], the EC50 (human CB2 receptors) is reported as 0.0006 µM.

In the case of CC(C)(C)c1nc(N2CCC(O)C2)c2ncn(Cc3ccc(Cl)cc3)c2n1 (stereo not drawn) [Example 26, 1-[2-tert-butyl-9-[(4-chlorophenyl)methyl]purin-6-yl]pyrrolidin-3-ol], the EC50 (human CB1 receptors) is reported as > 10 µM.

For CC(=O)N[C@H]1CCN(c2nc(C(C)(C)C)nc3c2ncn3Cc2nonc2C)C1 [Example 55, N—[(S)-1-[2-tert-butyl-9-[(4-methyl-1,2,5-oxadiazol-3-yl)methyl]purin-6-yl]pyrrolidin-3-yl]acetamide], the EC50 (human CB1 receptors) was > 10 µM.

For Cc1nonc1Cn1cnc2c(N3CCC(C)(O)C3)nc(C(C)(C)C)nc21 (stereo not drawn) [Example 70, 1-[2-tert-butyl-9-[(4-methyl-1,2,5-oxadiazol-3-yl)methyl]purin-6-yl]-3-methylpyrrolidin-3-ol], the EC50 (human CB1 receptors) was > 10 µM.

With CC(C)(C)Nc1nc(N2CC[C@H](O)C2)c2ncn(Cc3c[nH]nc3C(F)(F)F)c2n1 [Example 122, (3S)-1-[2-(tert-butylamino)-9-[[3-(trifluoromethyl)-1H-pyrazol-4-yl]methyl]purin-6-yl]pyrrolidin-3-ol] the EC50 (human CB1 receptors) was > 10 µM.

In the case of Cc1nonc1Cn1cnc2c(N3CCN(C)CC3)nc(C(C)(C)C)nc21 [Example 144, 3-[[2-tert-butyl-6-(4-methylpiperazin-1-yl)purin-9-yl]methyl]-4-methyl-1,2,5-oxadiazole], the EC50 (human CB1 receptors) is reported as > 10 µM.

Molecule CC(C)(C)c1nc(N2CCC(F)(F)C2)c2ncn(Cc3cccnc3Cl)c2n1 [Example 6, 2-tert-butyl-9-[(2-chloropyridin-3-yl)methyl]-6-(3,3-difluoropyrrolidin-1-yl)purine] has an EC50 (human CB2 receptors) of 0.0005 µM.

CCCn1cnc2c(N3CCC(O)C3)nc(C(C)(C)C)nc21 (stereo not drawn) [Example 36, 1-(2-tert-butyl-9-propylpurin-6-yl)pyrrolidin-3-ol] was tested, and the EC50 (human CB1 receptors) was > 10 µM.

CC(C)(C)c1nc(N2CCC(F)(F)C2)c2ncn(Cc3ccccc3C(F)(F)F)c2n1 [Example 5, 2-tert-butyl-6-(3,3-difluoropyrrolidin-1-yl)-9-[[2-(trifluoromethyl)phenyl]methyl]purine] showed an EC50 (human CB2 receptors) of 0.0007 µM.

With CCCn1cnc2c(N3CCC(F)(F)C3)nc(C(C)(C)C)nc21 [Example 10, 2-tert-butyl-6-(3,3-difluoropyrrolidin-1-yl)-9-propylpurine] the EC50 (human CB1 receptors) was > 10 µM.
